How the values were obtained:
[1] = test system: A549-FP3 human lung carcinoma xenograft; assay: A549 FP3 xenograft tumor growth inhibition in SCID-bg mice, with or without docetaxel; format: in vivo, mouse; conditions: QD × 1, Ab095 8 mg/kg IP, docetaxel 7.5 mg/kg IV, ADC 10 mg/kg IP, combination 7.5 + 10
Description: (§1) The cell lines A549 and NCI-H460 were obtained from the American Type Culture Collection (ATCC, Manassas, Va.). A549 cell line was further passaged in mice as flank xenograft to improve xenograft tumor growth, resulting in the A549-FP3 line. Cells were cultured as monolayers in RPMI-1640 culture media (Invitrogen, Carlsbad, Calif.) supplemented with 10% Fetal Bovine Serum (FBS, Hyclone, Logan, Utah). To generate xenografts, 5×10^6 (A549 and NCI-H460) viable cells were inoculated subcutaneously into the right flank of immune deficient female SCID-bg mice (Charles River Laboratories, Wilmington, Mass.). The injection volume was 0.2 ml and composed of 1:1 S-MEM:Matrigel Matrigel (BD, Franklin Lakes, N.J.). Tumors were size matched at approximately 223 mm^3. Antibodies, conjugates, and docetaxel were formulated in 0.9% sodium chloride for injection. […] Therapy began within 24 hours after size matching of the tumors. Mice weighed approximately 21 g at the onset of therapy. Tumor volume was estimated two to three times weekly. Measurements of the length (L) and width (W) of the tumor were taken via electronic caliper and the volume was calculated according to the following equation: V=L×W^2/2. […] Eight mice were housed per cage. […] Tumor growth inhibition is calculated by 100*(1−Tv/Cv) where Tv and Cv are the mean tumor volumes of the treated and control groups, respectively.

[2] = test system: NCI-H460 human lung carcinoma xenograft; assay: NCI-H460 xenograft tumor growth inhibition in SCID-bg mice, with or without docetaxel; format: in vivo, mouse; conditions: QD × 1, Ab095 8 mg/kg IP, docetaxel 7.5 mg/kg IV, ADC 10 mg/kg IP, combination 7.5 + 10
Description: as §1

**Q.** Which “TGD (%)” value [1] does the source give for `CC(=O)O[C@@]12CO[C@@H]1C[C@H](O)[C@@]1(C)C(=O)[C@H](O)C3=C(C)[C@@H](OC(=O)[C@H](O)[C@@H](NC(=O)OC(C)(C)C)c4ccccc4)C[C@@](O)([C@@H](OC(=O)c4ccccc4)[C@H]21)C3(C)C` [Docetaxel, reference compound] here?
**A.** The value was 80%.

**Q.** What about the “TGImax (%)” value [1] of the same compound?
**A.** The value was 62%.

**Q.** What about the “TGD (%)” value [2] of the same compound?
**A.** Its value is 30%.

**Q.** What about the “TGImax (%)” value [2] of the same compound?
**A.** Its value is 35%.
